Data: ChEMBL document CHEMBL3046897, “Synthesis of 3-{4-[4-dimethylamino-6-(4-methyl-2-oxo-2H-chromen-7-yloxy)-[1,3,5]triazin-2-ylamino]-phenyl}-2-phenyl-5-(4-pyridin-2-yl-piperazin-1-ylmethyl)-thiazolidin-4-one and their biological evaluation” (2012)
In brackets after ≈: the same amount, converted by molar mass.

Legend:
Assay type in all cases: functional
Aspergillus clavatus [1] = test: Antifungal activity against Aspergillus clavatus after 48 hr by agar streak dilution method
Staphylococcus aureus [2] = test: Antibacterial activity against Staphylococcus aureus after 24 hr by agar streak dilution method
Pseudomonas aeruginosa [3] = test: Antibacterial activity against Pseudomonas aeruginosa at 100 ug/disk after 24 hr by paper disk diffusion method; conditions: read-out: IZ
Klebsiella pneumoniae [4] = test: Antibacterial activity against Klebsiella pneumoniae after 24 hr by agar streak dilution method
Candida albicans [5] = test: Antifungal activity against Candida albicans after 48 hr by agar streak dilution method
Aspergillus clavatus [6] = test: Antifungal activity against Aspergillus clavatus at 100 ug/disc after 48 hr by paper disk diffusion method; conditions: read-out: IZ
Shigella flexneri [7] = test: Antibacterial activity against Shigella flexneri after 24 hr by agar streak dilution method
Escherichia coli [8] = test: Antibacterial activity against Escherichia coli at 100 ug/disk after 24 hr by paper disk diffusion method; conditions: read-out: IZ
Staphylococcus aureus [9] = test: Antibacterial activity against Staphylococcus aureus at 100 ug/disc after 24 hr by paper disk diffusion method; conditions: read-out: IZ
Proteus vulgaris [10] = test: Antibacterial activity against Proteus vulgaris at 100 ug/disk after 24 hr by paper disk diffusion method; conditions: read-out: IZ
Pseudomonas aeruginosa [11] = test: Antibacterial activity against Pseudomonas aeruginosa after 24 hr by agar streak dilution method
Aspergillus fumigatus [12] = test: Antifungal activity against Aspergillus fumigatus after 48 hr by agar streak dilution method
Escherichia coli [13] = test: Antibacterial activity against Escherichia coli after 24 hr by agar streak dilution method
Shigella flexneri [14] = test: Antibacterial activity against Shigella flexneri at 100 ug/disc after 24 hr by paper disk diffusion method; conditions: read-out: IZ
Aspergillus niger [15] = test: Antifungal activity against Aspergillus niger after 48 hr by agar streak dilution method
Aspergillus fumigatus [16] = test: Antifungal activity against Aspergillus fumigatus at 100 ug/disc after 48 hr by paper disk diffusion method; conditions: read-out: IZ
Salmonella typhi [17] = test: Antibacterial activity against Salmonella enterica subsp. enterica serovar Typhi after 24 hr by agar streak dilution method
Bacillus subtilis [18] = test: Antibacterial activity against Bacillus subtilis after 24 hr by agar streak dilution method
Aspergillus niger [19] = test: Antifungal activity against Aspergillus niger at 100 ug/disk after 48 hr by paper disk diffusion method; conditions: read-out: IZ
Klebsiella pneumoniae [20] = test: Antibacterial activity against Klebsiella pneumoniae at 100 ug/disk after 24 hr by paper disk diffusion method; conditions: read-out: IZ
Salmonella typhi [21] = test: Antibacterial activity against Salmonella enterica subsp. enterica serovar Typhi at 100 ug/disk after 24 hr by paper disk diffusion method; conditions: read-out: IZ
Candida albicans [22] = test: Antifungal activity against Candida albicans at 100 ug/disk after 48 hr by paper disk diffusion method; conditions: read-out: IZ
Proteus vulgaris [23] = test: Antibacterial activity against Proteus vulgaris after 24 hr by agar streak dilution method
Bacillus subtilis [24] = test: Antibacterial activity against Bacillus subtilis at 100 ug/disk after 24 hr by paper disk diffusion method; conditions: read-out: IZ

Row | Structure (SMILES) | MIC (Aspergillus clavatus [1]) [µg/mL] | MIC (Staphylococcus aureus [2]) [µg/mL] | zone of inhibition at 100 µg/disc (Pseudomonas aeruginosa [3]) [mm] | MIC (Klebsiella pneumoniae [4]) [µg/mL] | MIC (Candida albicans [5]) [µg/mL] | zone of inhibition at 100 µg/disc (Aspergillus clavatus [6]) [mm] | MIC (Shigella flexneri [7]) [µg/mL] | zone of inhibition at 100 µg/disc (Escherichia coli [8]) [mm] | zone of inhibition at 100 µg/disc (Staphylococcus aureus [9]) [mm] | zone of inhibition at 100 µg/disc (Proteus vulgaris [10]) [mm] | MIC (Pseudomonas aeruginosa [11]) [µg/mL] | MIC (Aspergillus fumigatus [12]) [µg/mL] | MIC (Escherichia coli [13]) [µg/mL] | zone of inhibition at 100 µg/disc (Shigella flexneri [14]) [mm] | MIC (Aspergillus niger [15]) [µg/mL] | zone of inhibition at 100 µg/disc (Aspergillus fumigatus [16]) [mm] | MIC (Salmonella typhi [17]) [µg/mL] | MIC (Bacillus subtilis [18]) [µg/mL] | zone of inhibition at 100 µg/disc (Aspergillus niger [19]) [mm] | zone of inhibition at 100 µg/disc (Klebsiella pneumoniae [20]) [mm] | also measured
1 | Cc1cc(=O)oc2cc(Oc3nc(Nc4ccc(/N=C/c5ccc(Cl)cc5)cc4)nc(N(C)C)n3)ccc12 | 50 (≈ 94.9 µM) | 50 (≈ 94.9 µM) | 11 | 100 (≈ 190 µM) | 50 (≈ 94.9 µM) | 18 | 25 (≈ 47.4 µM) | 16 | 17 | 17 | 100 (≈ 190 µM) | 50 (≈ 94.9 µM) | 100 (≈ 190 µM) | 21 | 100 (≈ 190 µM) | 16 | 25 (≈ 47.4 µM) | 100 (≈ 190 µM) | 12 | 15 | zone of inhibition at 100 µg/disc (Salmonella typhi [21]): 19 mm; zone of inhibition at 100 µg/disc (Candida albicans [22]): 18 mm; MIC (Proteus vulgaris [23]): 50 µg/mL (≈ 94.9 µM); zone of inhibition at 100 µg/disc (Bacillus subtilis [24]): 14 mm
2 | Cc1ccc(/C=N/c2ccc(Nc3nc(Oc4ccc5c(C)cc(=O)oc5c4)nc(N(C)C)n3)cc2)cc1 | 100 (≈ 197 µM) | 100 (≈ 197 µM) | 18 | 100 (≈ 197 µM) | 50 (≈ 98.7 µM) | 16 | 50 (≈ 98.7 µM) | < 10 | 16 | 11 | 50 (≈ 98.7 µM) | 100 (≈ 197 µM) | 100 (≈ 197 µM) | 18 | 50 (≈ 98.7 µM) | 15 | 50 (≈ 98.7 µM) | 50 (≈ 98.7 µM) | 17 | 10 | zone of inhibition at 100 µg/disc (Salmonella typhi [21]): 17 mm; zone of inhibition at 100 µg/disc (Candida albicans [22]): 17 mm; MIC (Proteus vulgaris [23]): 100 µg/mL (≈ 197 µM); zone of inhibition at 100 µg/disc (Bacillus subtilis [24]): 17 mm
3 | Cc1cc(=O)oc2cc(Oc3nc(Nc4ccc(N5C(=O)CSC5c5ccc(Cl)cc5Cl)cc4)nc(N(C)C)n3)ccc12 (stereo not given) | 50 (≈ 78.7 µM) | 50 (≈ 78.7 µM) | 16 | 50 (≈ 78.7 µM) | 100 (≈ 157 µM) | 19 | 50 (≈ 78.7 µM) | 17 | 17 | 18 | 50 (≈ 78.7 µM) | 50 (≈ 78.7 µM) | 50 (≈ 78.7 µM) | 17 | 100 (≈ 157 µM) | 17 | 100 (≈ 157 µM) | 50 (≈ 78.7 µM) | 14 | 19 | zone of inhibition at 100 µg/disc (Salmonella typhi [21]): 16 mm; zone of inhibition at 100 µg/disc (Candida albicans [22]): 16 mm; MIC (Proteus vulgaris [23]): 50 µg/mL (≈ 78.7 µM); zone of inhibition at 100 µg/disc (Bacillus subtilis [24]): 19 mm
4 | Cc1cc(=O)oc2cc(Oc3nc(Nc4ccc(N5C(=O)CSC5c5ccc(O)cc5)cc4)nc(N(C)C)n3)ccc12 (stereo not given) | 50 (≈ 85.8 µM) | 12.5 (≈ 21.5 µM) | 21 | 100 (≈ 172 µM) | 50 (≈ 85.8 µM) | 18 | 50 (≈ 85.8 µM) | 24 | 22 | 21 | 25 (≈ 42.9 µM) | 12.5 (≈ 21.5 µM) | 12.5 (≈ 21.5 µM) | 19 | 12.5 (≈ 21.5 µM) | 21 | 12.5 (≈ 21.5 µM) | 12.5 (≈ 21.5 µM) | 24 | 15 | zone of inhibition at 100 µg/disc (Salmonella typhi [21]): 23 mm; zone of inhibition at 100 µg/disc (Candida albicans [22]): 19 mm; MIC (Proteus vulgaris [23]): 12.5 µg/mL (≈ 21.5 µM); zone of inhibition at 100 µg/disc (Bacillus subtilis [24]): 20 mm
5 | Cc1cc(=O)oc2cc(Oc3nc(Nc4ccc(N5C(=O)C(CN6CCN(c7ccccn7)CC6)SC5c5cccc(F)c5)cc4)nc(N(C)C)n3)ccc12 (stereo not given) | 12.5 (≈ 16.5 µM) | 25 (≈ 32.9 µM) | 21 | 50 (≈ 65.8 µM) | 12.5 (≈ 16.5 µM) | 25 | 12.5 (≈ 16.5 µM) | 28 | 19 | 21 | 25 (≈ 32.9 µM) | 25 (≈ 32.9 µM) | 6.25 (≈ 8.23 µM) | 25 | 12.5 (≈ 16.5 µM) | 19 | 25 (≈ 32.9 µM) | 12.5 (≈ 16.5 µM) | 23 | 20 | zone of inhibition at 100 µg/disc (Salmonella typhi [21]): 23 mm; zone of inhibition at 100 µg/disc (Candida albicans [22]): 21 mm; MIC (Proteus vulgaris [23]): 50 µg/mL (≈ 65.8 µM); zone of inhibition at 100 µg/disc (Bacillus subtilis [24]): 21 mm
6 | Cc1cc(=O)oc2cc(Oc3nc(Nc4ccc(N5C(=O)CSC5c5ccc(O)cc5O)cc4)nc(N(C)C)n3)ccc12 (stereo not given) | 50 (≈ 83.5 µM) | 12.5 (≈ 20.9 µM) | 18 | 25 (≈ 41.8 µM) | 12.5 (≈ 20.9 µM) | 19 | 25 (≈ 41.8 µM) | 20 | 22 | 19 | 50 (≈ 83.5 µM) | 25 (≈ 41.8 µM) | 25 (≈ 41.8 µM) | 23 | 50 (≈ 83.5 µM) | 21 | 12.5 (≈ 20.9 µM) | 25 (≈ 41.8 µM) | 18 | 22 | zone of inhibition at 100 µg/disc (Salmonella typhi [21]): 24 mm; zone of inhibition at 100 µg/disc (Candida albicans [22]): 22 mm; MIC (Proteus vulgaris [23]): 50 µg/mL (≈ 83.5 µM); zone of inhibition at 100 µg/disc (Bacillus subtilis [24]): 20 mm
7 | Cc1cc(=O)oc2cc(Oc3nc(Nc4ccc(N5C(=O)C(CN6CCN(c7ccccn7)CC6)SC5c5ccc([N+](=O)[O-])cc5)cc4)nc(N(C)C)n3)ccc12 (stereo not given) | 50 (≈ 63.5 µM) | 100 (≈ 127 µM) | 13 | 100 (≈ 127 µM) | 100 (≈ 127 µM) | 20 | 100 (≈ 127 µM) | 16 | 16 | 10 | 100 (≈ 127 µM) | 50 (≈ 63.5 µM) | 100 (≈ 127 µM) | 14 | 100 (≈ 127 µM) | 18 | 50 (≈ 63.5 µM) | 100 (≈ 127 µM) | 15 | 15 | zone of inhibition at 100 µg/disc (Salmonella typhi [21]): 18 mm; zone of inhibition at 100 µg/disc (Candida albicans [22]): 13 mm; MIC (Proteus vulgaris [23]): 100 µg/mL (≈ 127 µM); zone of inhibition at 100 µg/disc (Bacillus subtilis [24]): 13 mm
8 | Cc1cc(=O)oc2cc(Oc3nc(Nc4ccc(N5C(=O)C(CN6CCN(c7ccccn7)CC6)SC5c5ccc(O)cc5O)cc4)nc(N(C)C)n3)ccc12 (stereo not given) | 12.5 (≈ 16.2 µM) | 6.25 (≈ 8.08 µM) | 20 | 6.25 (≈ 8.08 µM) | 6.25 (≈ 8.08 µM) | 22 | 6.25 (≈ 8.08 µM) | 23 | 26 | 22 | 25 (≈ 32.3 µM) | 12.5 (≈ 16.2 µM) | 12.5 (≈ 16.2 µM) | 26 | 25 (≈ 32.3 µM) | 23 | 6.25 (≈ 8.08 µM) | 12.5 (≈ 16.2 µM) | 21 | 27 | zone of inhibition at 100 µg/disc (Salmonella typhi [21]): 28 mm; zone of inhibition at 100 µg/disc (Candida albicans [22]): 27 mm; MIC (Proteus vulgaris [23]): 25 µg/mL (≈ 32.3 µM); zone of inhibition at 100 µg/disc (Bacillus subtilis [24]): 23 mm
9 | Cc1cc(=O)oc2cc(Oc3nc(Nc4ccc(/N=C/c5cccc(F)c5)cc4)nc(N(C)C)n3)ccc12 | 50 (≈ 97.9 µM) | 100 (≈ 196 µM) | 17 | 50 (≈ 97.9 µM) | 100 (≈ 196 µM) | 17 | 50 (≈ 97.9 µM) | 20 | 13 | 14 | 100 (≈ 196 µM) | 100 (≈ 196 µM) | 50 (≈ 97.9 µM) | 19 | 50 (≈ 97.9 µM) | 14 | 25 (≈ 49 µM) | 50 (≈ 97.9 µM) | 18 | 16 | zone of inhibition at 100 µg/disc (Salmonella typhi [21]): 18 mm; zone of inhibition at 100 µg/disc (Candida albicans [22]): 13 mm; MIC (Proteus vulgaris [23]): 100 µg/mL (≈ 196 µM); zone of inhibition at 100 µg/disc (Bacillus subtilis [24]): 16 mm
10 | COc1ccc(C2SC(CN3CCN(c4ccccn4)CC3)C(=O)N2c2ccc(Nc3nc(Oc4ccc5c(C)cc(=O)oc5c4)nc(N(C)C)n3)cc2)cc1 (stereo not given) | 50 (≈ 64.8 µM) | 25 (≈ 32.4 µM) | 18 | 50 (≈ 64.8 µM) | 25 (≈ 32.4 µM) | 19 | 100 (≈ 130 µM) | 16 | 21 | 20 | 100 (≈ 130 µM) | 25 (≈ 32.4 µM) | 100 (≈ 130 µM) | 17 | 25 (≈ 32.4 µM) | 20 | 25 (≈ 32.4 µM) | 25 (≈ 32.4 µM) | 22 | 19 | zone of inhibition at 100 µg/disc (Salmonella typhi [21]): 22 mm; zone of inhibition at 100 µg/disc (Candida albicans [22]): 23 mm; MIC (Proteus vulgaris [23]): 50 µg/mL (≈ 64.8 µM); zone of inhibition at 100 µg/disc (Bacillus subtilis [24]): 19 mm
